# Measured values taken from publication PMC6120666 (The EMBO Journal, 2018).
# Legend:
# [1] = biological target: T1, proteins of U2OS cell lysate (Homo sapiens, UniProt Q9UBN7); assay: Drug affinity chromatography with c-ponatinib and LC-MS/MS (ponatinib interactome); format: binding
# T1 construct: Proteins enriched by c-ponatinib from U2OS cell lysate; endogenous in cells; host or cells: U2OS cell lysate
# Protocol: (§1) Drug affinity chromatography
# (§2) U2OS cells were grown until approximately 80% confluent before being pelleted and washed with PBS. Cell pellets were subsequently lysed in buffer A (50 mM Tris pH 7.5, 0.8% v/v NP-40, 5% v/v glycerol, 1.5 mM MgCl2, 100 mM NaCl, 25 mM NaF, 1 mM Na3VO4, 1 mM PMSF, 1mM DTT, 10 μg/mL TLCK, 1 μg/ml Leupeptin, 1 μg/ml Aprotinin, 1 μg/ml soy bean trypsin) and lysates prepared […]
# (§3) concentration was determined and lysates stored at -80 °C.
# (§4) Briefly, 100 μl of bead slurry (50% in isopropanol) were used for each pulldown experiment. Beads were washed with DMSO (3 × 500 μl), and resuspended in DMSO (50 μl), to which the amine (0.025 μmol) and triethylamine (0.75 μl) were added. The beads were incubated at room temperature for 16 h, and depletion of free amine from the supernatant was determined by LC-MS analysis. Ethanolamine (2.5 μl) was then added to block any unreacted NHS sites, and the beads incubated for a further 16 h. Derivatized beads were then washed with DMSO (3 × 500 μl), buffer A (3 × 1 ml), and incubated with cell lysates (2 mg of protein per pulldown, at 6 […]
# (§5) Beads and treated lysates were incubated for 2 h at 4 °C before washing with buffer A (5 ml), Buffer B (50 mM HEPES pH 7.5, 100 mM NaCl, 500 μM EDTA, 2.5 ml), and eluted with formic acid (100 mM, 250 μl). Samples were neutralized with triethylammoniumbicarbonate (TEAB, 1M, 62.5 μl) and stored at -20 °C until preparation for proteomic analysis.
# (§6) Samples were reduced with DTT (10 mM final concentration) for 30 min at room temperature, alkylated with iodoacetamide (55 mM final concentration) for 30 min at room temperature, diluted to 300 μl with TEAB, and incubated with trypsin (6 μl, 0.2 mg/ml) overnight at 37 °C. The digests were desalted using SEPAC lite columns (Waters), eluted with 69 % v/v MeCN, 0.1 % v/v FA in H2O (1 ml) and dried in vacuo. Dried peptides were stored at -20 °C before resuspension in 2 % v/v MeCN, 1 % v/v FA in H2O (20 μl) for LC-MS/MS analysis.
# (§7) LC-MS/MS data acquisition
# (§8) Mass spectrometry data was acquired at the Discovery Proteomics Facility (University of Oxford).
# (§9) Digested samples were analyzed by nano-UPLC–MS/MS using a Dionex Ultimate 3000 nano UPLC with EASY spray column (75 μm × 500 mm, 2 μm particle size, Thermo Fisher Scientific) with a 60 min gradient of 0.1 % (v/v) formic acid in 5 % (v/v) DMSO to 0.1 % (v/v) formic acid with 35 % (v/v) acetonitrile in 5 % (v/v) DMSO at a flow rate of approximately 250 nl min−1 (600 bar per 40 °C column temperature). Mass spectrometry data was acquired either with an Orbitrap Q Exactive (Survey scans acquired at a resolution of 70,000 @ 200m/z and the 15 most abundant precursors were selected for HCD fragmentation), or an Orbitrap Q Exactive High Field (HF) instrument (survey scans were […]
# [2] = biological target: T2, proteins of U2OS cell lysate (Homo sapiens, UniProt O75396); assay: as above; format: binding
# T2 construct: Proteins enriched by c-ponatinib from U2OS cell lysate; endogenous in cells; host or cells: U2OS cell lysate
# T2 sequence (O75396 whole entry): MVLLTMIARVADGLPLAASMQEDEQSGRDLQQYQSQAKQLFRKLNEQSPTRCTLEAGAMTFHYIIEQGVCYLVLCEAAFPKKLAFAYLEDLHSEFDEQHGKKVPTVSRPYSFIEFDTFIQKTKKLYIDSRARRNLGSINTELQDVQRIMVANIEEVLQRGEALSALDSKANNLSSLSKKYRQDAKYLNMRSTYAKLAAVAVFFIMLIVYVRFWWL
# Protocol: as §1, §2, §3, §4, §5, §6, §7, §8, §9
# [3] = biological target: T3, proteins of U2OS cell lysate (Homo sapiens, UniProt P53999); assay: as above; format: binding
# T3 construct: Proteins enriched by c-ponatinib from U2OS cell lysate; endogenous in cells; host or cells: U2OS cell lysate
# Protocol: as §1, §2, §3, §4, §5, §6, §7, §8, §9
# [4] = biological target: T4, proteins of U2OS cell lysate (Homo sapiens, UniProt O75947); assay: as above; format: binding
# T4 construct: Proteins enriched by c-ponatinib from U2OS cell lysate; endogenous in cells; host or cells: U2OS cell lysate
# T4 sequence (O75947 whole entry): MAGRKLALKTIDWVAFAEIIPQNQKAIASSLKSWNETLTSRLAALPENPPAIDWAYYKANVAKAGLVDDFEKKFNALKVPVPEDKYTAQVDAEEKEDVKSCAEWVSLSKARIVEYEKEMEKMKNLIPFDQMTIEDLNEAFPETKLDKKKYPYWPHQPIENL
# Protocol: as §1, §2, §3, §4, §5, §6, §7, §8, §9
# [5] = biological target: T5, proteins of U2OS cell lysate (Homo sapiens, UniProt Q13233); assay: as above; format: binding
# T5 construct: Proteins enriched by c-ponatinib from U2OS cell lysate; endogenous in cells; host or cells: U2OS cell lysate
# T5 sequence (Q13233 whole entry): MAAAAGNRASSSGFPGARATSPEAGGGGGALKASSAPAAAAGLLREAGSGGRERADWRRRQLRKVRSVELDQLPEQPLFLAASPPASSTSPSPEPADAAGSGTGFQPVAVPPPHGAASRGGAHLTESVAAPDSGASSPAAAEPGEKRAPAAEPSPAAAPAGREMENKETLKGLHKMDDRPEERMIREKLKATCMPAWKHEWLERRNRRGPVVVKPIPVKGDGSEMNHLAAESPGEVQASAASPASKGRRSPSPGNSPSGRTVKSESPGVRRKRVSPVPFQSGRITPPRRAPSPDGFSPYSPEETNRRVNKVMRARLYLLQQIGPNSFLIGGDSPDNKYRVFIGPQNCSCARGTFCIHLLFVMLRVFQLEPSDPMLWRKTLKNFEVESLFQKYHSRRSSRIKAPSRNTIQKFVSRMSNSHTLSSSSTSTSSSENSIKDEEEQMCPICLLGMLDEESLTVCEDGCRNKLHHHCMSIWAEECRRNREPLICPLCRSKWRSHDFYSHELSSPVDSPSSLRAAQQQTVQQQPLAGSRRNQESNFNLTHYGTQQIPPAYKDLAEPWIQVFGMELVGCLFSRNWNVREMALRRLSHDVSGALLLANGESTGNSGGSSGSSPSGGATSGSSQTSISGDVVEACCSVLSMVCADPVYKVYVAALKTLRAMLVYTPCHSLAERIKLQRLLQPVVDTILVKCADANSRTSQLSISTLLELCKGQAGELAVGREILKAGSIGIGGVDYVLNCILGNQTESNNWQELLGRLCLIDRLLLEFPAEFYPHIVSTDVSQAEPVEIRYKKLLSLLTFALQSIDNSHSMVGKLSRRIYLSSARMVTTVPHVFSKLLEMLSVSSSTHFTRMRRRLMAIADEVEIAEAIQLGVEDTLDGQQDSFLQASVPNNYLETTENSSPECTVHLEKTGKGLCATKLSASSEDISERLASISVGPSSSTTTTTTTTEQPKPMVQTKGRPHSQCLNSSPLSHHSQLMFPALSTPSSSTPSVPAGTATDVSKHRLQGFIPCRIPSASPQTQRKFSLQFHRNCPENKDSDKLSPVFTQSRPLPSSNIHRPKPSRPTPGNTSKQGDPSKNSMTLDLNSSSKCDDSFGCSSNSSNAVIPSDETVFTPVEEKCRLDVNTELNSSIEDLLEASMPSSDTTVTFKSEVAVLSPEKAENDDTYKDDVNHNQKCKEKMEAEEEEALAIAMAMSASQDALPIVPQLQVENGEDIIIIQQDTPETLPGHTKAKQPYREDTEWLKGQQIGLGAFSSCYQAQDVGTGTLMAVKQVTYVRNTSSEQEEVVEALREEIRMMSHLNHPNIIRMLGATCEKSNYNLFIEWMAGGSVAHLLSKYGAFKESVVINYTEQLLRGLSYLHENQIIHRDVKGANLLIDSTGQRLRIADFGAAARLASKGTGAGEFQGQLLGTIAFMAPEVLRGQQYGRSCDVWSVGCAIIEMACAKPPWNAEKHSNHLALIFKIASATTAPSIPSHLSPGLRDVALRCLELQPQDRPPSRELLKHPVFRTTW
# Protocol: as §1, §2, §3, §4, §5, §6, §7, §8, §9
# C57Bl6/J mice = assay: Inhibition of MDP-elicited TNF release in vivo; conditions: 10 mg/kg i.p. 30 min before MDP 100 μg/mouse i.p., blood after 4 h
# Protocol: Female 6‐ to 8‐week‐old C57Bl6/J mice (Jackson labs) were administered with the compounds i.p. 30 min prior to the i.p. injections of MDP as previously described (Nachbur et al, 2015). After 4 h, blood was collected by cardiac puncture. 100 μl of serum (diluted twofold) per animal was analyzed using anti‐mouse TNF ELISA (ThermoFisher Scientific).
# All mouse experiments were approved by the Tufts University Committee on the Use and Care of Animals and performed according to accepted veterinary standards. Female 6-8-week-old C57Bl6/J mice (Jackson labs) were used for the experiments. Experiments were performed as previously described (Nachbur et al., 2015). Tested compounds were formulated in 6% Captisol formulation, pH 4.0 (100 μl/mouse, 10 mg/kg, Ligand Pharmaceuticals, San Diego, CA). MDP (Bachem, King of Prussia, PA) was dissolved in saline (100 μl/mouse, 100 μg/mouse). Mice were administered with the drugs i.p. 30 min prior to the i.p. injections of MDP. After 4 h, blood was collected by cardiac puncture.
# 100 μl of serum (diluted 2-fold) per animal was analyzed using anti-mouse TNF ELISA (ThermoFisher […]
# Expression and purification of RIPK2 for X-ray crystallography […]
# T1 sequence (Q9UBN7 whole entry): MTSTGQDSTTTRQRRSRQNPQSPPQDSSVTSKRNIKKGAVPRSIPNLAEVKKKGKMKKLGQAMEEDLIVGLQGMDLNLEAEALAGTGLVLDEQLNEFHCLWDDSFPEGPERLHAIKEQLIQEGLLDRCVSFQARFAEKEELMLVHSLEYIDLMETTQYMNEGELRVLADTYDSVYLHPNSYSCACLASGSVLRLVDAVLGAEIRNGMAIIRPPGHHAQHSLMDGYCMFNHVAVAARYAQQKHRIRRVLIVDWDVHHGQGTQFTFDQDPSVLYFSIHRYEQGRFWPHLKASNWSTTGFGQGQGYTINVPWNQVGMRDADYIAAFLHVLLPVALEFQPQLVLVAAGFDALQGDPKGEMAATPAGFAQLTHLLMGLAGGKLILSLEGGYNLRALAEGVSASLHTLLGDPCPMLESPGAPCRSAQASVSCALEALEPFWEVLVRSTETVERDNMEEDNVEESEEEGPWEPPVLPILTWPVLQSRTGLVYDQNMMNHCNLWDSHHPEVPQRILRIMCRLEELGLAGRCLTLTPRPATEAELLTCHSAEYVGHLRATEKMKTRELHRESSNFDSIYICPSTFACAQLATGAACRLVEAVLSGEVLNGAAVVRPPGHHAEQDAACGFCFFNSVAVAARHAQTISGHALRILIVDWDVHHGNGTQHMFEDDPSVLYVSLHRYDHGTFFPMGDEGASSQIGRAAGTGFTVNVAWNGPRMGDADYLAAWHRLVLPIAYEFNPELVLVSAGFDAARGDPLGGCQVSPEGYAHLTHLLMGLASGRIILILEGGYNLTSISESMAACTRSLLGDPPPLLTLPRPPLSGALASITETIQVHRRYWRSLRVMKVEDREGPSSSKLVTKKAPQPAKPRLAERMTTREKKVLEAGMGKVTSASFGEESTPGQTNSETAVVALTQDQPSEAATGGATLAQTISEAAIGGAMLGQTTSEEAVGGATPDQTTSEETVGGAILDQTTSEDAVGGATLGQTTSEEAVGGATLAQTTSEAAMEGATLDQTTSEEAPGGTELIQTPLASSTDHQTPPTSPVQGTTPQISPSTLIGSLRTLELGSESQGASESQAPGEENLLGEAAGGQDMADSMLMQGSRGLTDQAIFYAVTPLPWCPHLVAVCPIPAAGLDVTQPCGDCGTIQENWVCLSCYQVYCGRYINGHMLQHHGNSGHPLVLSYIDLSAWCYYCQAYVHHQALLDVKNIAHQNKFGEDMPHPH
structure (smiles),measurement,setting,value
Cc1ccc(C(=O)Nc2ccc(CN3CCN(C)CC3)c(C(F)(F)F)c2)cc1C#Cc1cnc2cccnn12 [PON],Average LFQ PON_WT,"[1]; HDAC6, Histone deacetylase 6",22.8295
same,Average LFQ PON_WT,"[2]; SEC22B, Vesicle-trafficking protein SEC22b",22.7294
same,Average LFQ PON_WT,"[3]; SUB1, Activated RNA polymerase II transcriptional coactivator p15",22.9694
same,Average LFQ PON_WT,"[4]; ATP5H, ATP synthase subunit d, mitochondrial",23.183
same,Average LFQ PON_WT,"[5]; MAP3K1, Mitogen-activated protein kinase kinase kinase 1",22.7864
"Cc1ccc(C(=O)Nc2ccc(CN3CCN(CCCN)CC3)c(C(F)(F)F)c2)cc1C#Cc1cnc2cccnn12 [c-ponatinib, reference compound]",Average LFQ intensity,"[1]; captured protein HDAC6, Rank 137",22.8295
same,Average LFQ intensity,"[2]; captured protein SEC22B, Rank 146",22.7294
same,Average LFQ intensity,"[3]; captured protein SUB1, Rank 126",22.9694
same,Average LFQ intensity,"[4]; captured protein ATP5H, Rank 115",23.183
same,Average LFQ intensity,"[5]; captured protein MAP3K1, Rank 139",22.7864
CCCS(=O)(=O)Nc1cc(-c2cc(-c3ccc(N4CCNCC4)cc3)cnc2N)cc(F)c1OC [CSLP37],MDP-elicited serum TNF levels,C57Bl6/J mice,potently reduced
"Cc1ccc(-c2nn(C(C)(C)CNC(=O)c3ccncc3)c3ncnc(N)c23)cc1 [WEHI‐345, reference compound]",MDP-elicited serum TNF levels,C57Bl6/J mice,partial reduction
